Assay [1] deals with Amyloid-beta precursor protein (Homo sapiens) (UniProt P05067). Nature of the assay: Inhibition of amyloid beta (25 to 35 residues) (unknown origin)-induced toxicity in rat PC12 cells assessed as protection against amyloid beta (25 to 35 residues)-induced apoptosis by measuring early apoptotic cells at 50 ug/ml by Annexin V-FITC/propidium iodide staining-based flow cytometric method (reference value: 46%). To be noted: at 50 µg/mL. The assay is classed as cell-based. More on the design: scale not given: the % may be the effect or the level left.

Assay [2] shares this target. Nature of the assay: Inhibition of amyloid beta (25 to 35 residues) (unknown origin)-induced toxicity in rat PC12 cells assessed as protection against amyloid beta (25 to 35 residues)-induced apoptosis by measuring necrotic cells at 50 ug/ml by Annexin V-FITC/propidium iodide staining-based flow cytometric method (reference value: 0.73%). Also on record: scale not given: the % may be the effect or the level left. The assay is classed as cell-based. Conditions: at 50 µg/mL. A general note: A flow cytometer gives signals particle by particle.

For assay [3] the target is unchanged. Nature of the assay: Inhibition of amyloid beta (25 to 35 residues) (unknown origin)-induced toxicity in rat PC12 cells assessed as protection against amyloid beta (25 to 35 residues)-induced apoptosis by measuring viable cells at 50 ug/ml by Annexin V-FITC/propidium iodide staining-based flow cytometric method (reference value: 48.71%). The assay is classed as cell-based. To be noted: at 50 µg/mL.

The target is the same in assay [4]. To be noted: at 50 µg/mL.
Description: Inhibition of amyloid beta (25 to 35 residues) (unknown origin)-induced toxicity in rat PC12 cells assessed as cell survival at 50 ug/ml after 1 to 3 weeks by clonogenic assay (Rvb = 25%)
For assay [5] the target is unchanged. Nature of the assay: Inhibition of amyloid beta (25 to 35 residues) (unknown origin)-induced toxicity in rat PC12 cells assessed as increase in cell viability at 50 ug/ml preincubated for 2 hrs followed by amyloid beta (25 to 35 residues) addition measured after 24 hrs by MTT dye based light microscopic assay (reference value: 48%). To be noted: at 50 µg/mL. On the technique in general: Formazan colour is commonly taken as a measure of viable cells.

The target is the same in assay [6]. Description: Inhibition of amyloid beta (25 to 35 residues) (unknown origin)-induced toxicity in rat PC12 cells assessed as protection against amyloid beta (25 to 35 residues)-induced apoptosis by measuring late apoptotic cells at 50 ug/ml by Annexin V-FITC/propidium iodide staining-based flow cytometric method (reference value: 4.56%). It is filed as cell-based. Also on record: scale not given: the % may be the effect or the level left. To be noted: at 50 µg/mL.

The target is the same in assay [7]. Nature of the assay: Inhibition of amyloid beta (25 to 35 residues) (unknown origin)-induced toxicity in rat PC12 cells assessed as cell survival at 5 ug/ml after 1 to 3 weeks by clonogenic assay (reference value: 25%). It is filed as cell-based.
For assay [8] the target is unchanged. Nature of the assay: Inhibition of amyloid beta (25 to 35 residues) (unknown origin) aggregation at 5 ug/ml after 24 to 48 hrs by phosphotungstic acid staining based transmission electron microscopy.
The target is the same in assay [9]. Nature of the assay: Inhibition of amyloid beta (25 to 35 residues) (unknown origin) aggregation at 5 ug/ml after 24 to 48 hrs by ThT-based fluorescence spectroscopic method.
Assay [10] shares this target. Nature of the assay: Inhibition of amyloid beta (25 to 35 residues) (unknown origin)-induced toxicity in rat PC12 cells assessed as protection against amyloid beta (25 to 35 residues)-induced apoptosis by measuring late apoptotic cells at 5 ug/ml by Annexin V-FITC/propidium iodide staining-based flow cytometric method (reference value: 4.56%). The assay is classed as cell-based. More on the design: scale not given: the % may be the effect or the level left.

Assay [11] shares this target. Nature of the assay: Inhibition of amyloid beta (25 to 35 residues) (unknown origin)-induced toxicity in rat PC12 cells assessed as increase in cell viability at 2 to 10 ug/ml preincubated for 2 hrs followed by amyloid beta (25 to 35 residues) addition measured after 24 hrs by MTT dye based light microscopic assay (reference value: 48%).
Assay [12] deals with Acetylcholinesterase (Homo sapiens, UniProt P22303). Nature of the assay: Inhibition of AChE (unknown origin) preincubated for 45 mins followed by ATCI substrate addition measured for 3 mins.
In assay [13] the target is Amyloid-beta precursor protein (Homo sapiens) (UniProt P05067). Nature of the assay: Disaggregation of amyloid beta (25 to 35 residues) (unknown origin) preformed fibrils at 5 ug/ml after 96 hrs to 9 days by thioflavin T dye based confocal laser scanning microscopy.
Assay [14] shares this target. Nature of the assay: Disaggregation of amyloid beta (25 to 35 residues) (unknown origin) preformed fibrils at 5 ug/ml after 96 hrs to 9 days by phosphotungstic acid staining based transmission electron microscopy.
Assay [15] shares this target. Nature of the assay: Inhibition of amyloid beta (25 to 35 residues) (unknown origin)-induced toxicity in rat PC12 cells assessed as protection against amyloid beta (25 to 35 residues)-induced apoptosis by measuring early apoptotic cells at 5 ug/ml by Annexin V-FITC/propidium iodide staining-based flow cytometric method (reference value: 46%). It is filed as cell-based. Also on record: scale not given: the % may be the effect or the level left.

The target is the same in assay [16]. Nature of the assay: Inhibition of amyloid beta (25 to 35 residues) (unknown origin)-induced toxicity in rat PC12 cells assessed as protection against amyloid beta (25 to 35 residues)-induced apoptosis by measuring viable cells at 5 ug/ml by Annexin V-FITC/propidium iodide staining-based flow cytometric method (reference value: 48.71%). It is filed as cell-based.

The target is the same in assay [17]. Description: Inhibition of amyloid beta (25 to 35 residues) (unknown origin)-induced toxicity in rat PC12 cells assessed as protection against amyloid beta (25 to 35 residues)-induced apoptosis by measuring necrotic cells at 5 ug/ml by Annexin V-FITC/propidium iodide staining-based flow cytometric method (reference value: 0.73%). The assay is classed as cell-based. More on the design: scale not given: the % may be the effect or the level left.

Assay [18] has the same target. Nature of the assay: Inhibition of amyloid beta (25 to 35 residues) (unknown origin) aggregation at 5 ug/ml after 24 to 48 hrs by FTIR spectroscopy.
For assay [19] the target is unchanged. Description: Disaggregation of amyloid beta (25 to 35 residues) (unknown origin) preformed fibrils at 5 ug/ml after 96 hrs to 9 days by ThT-based fluorescence spectroscopic method.
Assay [20] shares this target. Description: Inhibition of amyloid beta (25 to 35 residues) (unknown origin) aggregation at 5 ug/ml after 24 to 48 hrs by thioflavin T dye based confocal laser scanning microscopy.
Assay [21] has the same target. Nature of the assay: Disaggregation of amyloid beta (25 to 35 residues) (unknown origin) preformed fibrils at 5 ug/ml after 96 hrs to 9 days by FTIR spectroscopy.
Assay [22] shares this target. Nature of the assay: Inhibition of amyloid beta (25 to 35 residues) (unknown origin) aggregation at 50 ug/ml after 24 to 48 hrs by thioflavin T dye based confocal laser scanning microscopy.
The target is the same in assay [23]. Description: Disaggregation of amyloid beta (25 to 35 residues) (unknown origin) preformed fibrils at 50 ug/ml after 96 hrs to 9 days by ThT-based fluorescence spectroscopic method.
Assay [24] shares this target. Nature of the assay: Disaggregation of amyloid beta (25 to 35 residues) (unknown origin) preformed fibrils at 50 ug/ml after 96 hrs to 9 days by FTIR spectroscopy.
The target is the same in assay [25]. Nature of the assay: Inhibition of amyloid beta (25 to 35 residues) (unknown origin) aggregation at 50 ug/ml after 24 to 48 hrs by FTIR spectroscopy.
Assay [26] shares this target. Nature of the assay: Disaggregation of amyloid beta (25 to 35 residues) (unknown origin) preformed fibrils at 50 ug/ml after 96 hrs to 9 days by thioflavin T dye based confocal laser scanning microscopy.

Active and inactive are the calls of the source. The rule behind the calls is not given here.

Chain of Amyloid-beta precursor protein (Homo sapiens) (P05067 whole entry, the tested form may be a part): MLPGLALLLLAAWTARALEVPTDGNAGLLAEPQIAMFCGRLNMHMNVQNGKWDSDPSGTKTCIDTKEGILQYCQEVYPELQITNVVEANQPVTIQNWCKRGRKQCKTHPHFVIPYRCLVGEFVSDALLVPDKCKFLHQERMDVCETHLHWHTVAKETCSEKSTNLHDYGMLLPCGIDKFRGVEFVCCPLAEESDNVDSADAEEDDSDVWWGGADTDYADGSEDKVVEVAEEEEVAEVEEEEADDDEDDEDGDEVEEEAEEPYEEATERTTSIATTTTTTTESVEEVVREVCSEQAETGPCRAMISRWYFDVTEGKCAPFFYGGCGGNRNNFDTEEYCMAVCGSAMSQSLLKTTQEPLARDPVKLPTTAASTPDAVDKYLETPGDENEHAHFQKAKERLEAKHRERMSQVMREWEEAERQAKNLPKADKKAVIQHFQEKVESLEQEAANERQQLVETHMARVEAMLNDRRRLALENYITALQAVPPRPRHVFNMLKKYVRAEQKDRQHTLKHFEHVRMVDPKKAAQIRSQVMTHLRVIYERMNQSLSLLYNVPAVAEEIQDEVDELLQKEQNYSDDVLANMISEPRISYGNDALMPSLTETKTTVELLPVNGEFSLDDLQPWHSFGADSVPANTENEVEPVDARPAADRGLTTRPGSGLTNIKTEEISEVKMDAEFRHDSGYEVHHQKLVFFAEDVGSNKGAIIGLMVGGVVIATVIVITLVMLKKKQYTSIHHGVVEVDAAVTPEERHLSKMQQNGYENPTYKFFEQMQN
Chain of Acetylcholinesterase (P22303 whole entry, the tested form may be a part): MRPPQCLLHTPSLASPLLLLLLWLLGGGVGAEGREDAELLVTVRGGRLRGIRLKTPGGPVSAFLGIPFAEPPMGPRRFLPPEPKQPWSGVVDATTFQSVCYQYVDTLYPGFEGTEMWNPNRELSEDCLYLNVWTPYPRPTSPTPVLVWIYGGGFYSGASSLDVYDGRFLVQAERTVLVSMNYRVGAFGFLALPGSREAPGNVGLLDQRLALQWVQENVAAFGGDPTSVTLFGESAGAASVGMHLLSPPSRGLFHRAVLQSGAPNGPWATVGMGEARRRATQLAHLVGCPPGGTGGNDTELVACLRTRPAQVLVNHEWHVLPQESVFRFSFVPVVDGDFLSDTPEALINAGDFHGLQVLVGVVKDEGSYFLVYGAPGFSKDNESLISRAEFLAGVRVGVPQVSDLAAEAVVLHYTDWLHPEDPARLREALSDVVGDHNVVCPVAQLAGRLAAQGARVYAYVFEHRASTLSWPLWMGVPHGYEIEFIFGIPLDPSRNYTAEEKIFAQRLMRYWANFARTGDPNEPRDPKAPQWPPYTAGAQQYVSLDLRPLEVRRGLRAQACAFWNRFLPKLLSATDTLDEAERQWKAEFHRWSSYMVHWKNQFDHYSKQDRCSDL

Take `COc1cc2c(cc1OC)C(=O)C(CC1CCN(Cc3ccccc3)CC1)C2` (stereo unspecified): the Activity in [1] came out at 1.58%; in assay [2], 2%; in assay [3], 96.2%; in assay [5], 81%; in [6], 0.26%. The compound also gave a Survival in assay [4] of 96%.

Regarding `CC(C)=CCC[C@@](C)(O)[C@H]1CC=C(C)CC1`, the Survival in assay [7] came to 96%. Further, the inhibition entry in [8], in assay [9], in assay [18] and in [20] was “Active” in each case. In addition, the Activity in [10] was 0.31%; in assay [11], over 80%; in assay [15] it was 1.32%; in assay [16], 97.8%; in assay [17] it was 0.62%. The same compound gave an IC50 in assay [12] of under 45 µM. Besides, the result in assay [13], in [14], in assay [19] and in assay [21] was Active.

For the compound `COc1ccc2c3c1O[C@H]1C[C@@H](O)C=C[C@@]31CCN(C)C2`, the inhibition result in [22] and in assay [25] was “Active” throughout. Also, the result in assay [23], in assay [24] and in assay [26] was Active.

The IC50 is the concentration that gives 50% inhibition.
